Where two headings read alike, the source gives them in different places.
How the values were obtained:
SOS1 and KRAS G12C = SOS1 and KRAS G12C (Homo sapiens (Human), UniProt Q07889); assay: KRAS::SOS1 AlphaScreen binding assay (KRAS G12C); conditions: average of at least two measurements
SOS1 and KRAS G12D = SOS1 and KRAS G12D (Homo sapiens (Human), UniProt Q07889); assay: KRAS::SOS1 AlphaScreen binding assay (KRAS G12D); conditions: average of at least two measurements
[1] = system: ERK phosphorylation in NCI-H358 SOS2 KO cells (KRAS G12C); assay: Erk phosphorylation assay; assay type: cell-based, human; conditions: EGF stimulated, average of at least two measurements, read-out: pERK IC50
Method in brief: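 NCI-H358 SOS2 KO cells (KRAS G12C) in DMEM/2% FBS were pretreated 50 min with compound, then stimulated with EGF (approx. 8 ng/mL) for 10-15 min. pERK1/2 (Thr202/Tyr204) measured in lysates by AlphaLISA SureFire; IC50 from variable-slope fit, averaged over at least two measurements.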

P450 3A4 = P450 3A4 (Homo sapiens (Human), UniProt P08684); assay: Cytochrome P450 isoenzyme inhibition assay (P450 3A4, midazolam); assay type: in vitro ADME; conditions: human liver microsomes, Midazolam as substrate; read-out: CYP3A4 inhibition IC50
Chain of P450 3A4 (P08684 whole entry): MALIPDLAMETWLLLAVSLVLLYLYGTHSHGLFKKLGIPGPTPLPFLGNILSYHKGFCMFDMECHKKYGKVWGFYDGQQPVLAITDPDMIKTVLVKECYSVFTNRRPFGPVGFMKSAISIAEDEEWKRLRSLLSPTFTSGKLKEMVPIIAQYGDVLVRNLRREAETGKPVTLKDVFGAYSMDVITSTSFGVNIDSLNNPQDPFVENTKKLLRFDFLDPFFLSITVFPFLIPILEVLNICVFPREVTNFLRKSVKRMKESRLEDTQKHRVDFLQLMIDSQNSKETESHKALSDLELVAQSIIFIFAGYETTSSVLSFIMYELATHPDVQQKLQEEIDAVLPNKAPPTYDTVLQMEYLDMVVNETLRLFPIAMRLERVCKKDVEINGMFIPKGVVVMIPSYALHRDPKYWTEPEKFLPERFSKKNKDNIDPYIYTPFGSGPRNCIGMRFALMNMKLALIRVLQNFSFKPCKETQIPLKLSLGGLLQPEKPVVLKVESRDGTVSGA
Method in brief: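 Midazolam (5 μM) hydroxylation by human liver microsomes (0.1 mg/ml) in 0.1 M TRIS with 5 mM MgCl2, started with 1 mM NADPH. Five compound concentrations in duplicate, e.g. top 50 μM with 1:4 dilutions. Metabolite quantified by LC-MS/MS against internal standard; IC50 from inhibition relative to no-compound control.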

CYP3A4 = CYP3A4 (Homo sapiens (Human), UniProt P08684); assay: Mechanism-based inhibition of CYP3A4 assay (MBI 3A4); assay type: in vitro ADME; conditions: human liver microsomes, midazolam substrate, hydroxy-midazolam formation after 30 min preincubation relative to 0 min; for inhibition at 30 min: human, probe midazolam 15 μM (hydroxy-midazolam formation), read-out: MBI inhibition % ctrl. [%] with MDZ
Chain of CYP3A4 (P08684 whole entry): as above
Method in brief: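 Human liver microsomes (0.2 mg/mL) were preincubated with compound at 0, 5 or 25 μM plus 1 mM NADPH for 0, 10 or 30 min, then diluted 1:10 and incubated 10 min with 15 μM midazolam. Hydroxy-midazolam was measured by LC/MS-MS; readout is formation after 30 min relative to 0 min preincubation (%).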

human hepatocytes = assay: Metabolic stability in human hepatocytes; conditions: 1 μM test compound, 50% human serum, percentage of liver blood flow
Description: The metabolic degradation of a test compound is performed with hepatocytes in suspension. After recovery from cryopreservation, human hepatocytes are diluted in Dulbecco's modified eagle medium (supplemented with 3.5 μg glucagon/500 mL, 2.5 mg insulin/500 mL, 3.75 mg hydrocortisone/500 mL, 50% human serum) to obtain a final cell density of 1.0×10^6 cells/mL. Following a preincubation in a cell culture incubator (37° C., 10% CO2), test compound dissolved in DMSO is mixed with the hepatocyte suspension, resulting in a final test compound concentration of 1 μM and a final DMSO concentration of 0.05%.
The cell suspension is incubated at 37° C. (cell culture incubator, horizontal shaker) and samples are removed from the incubation after 0, 0.5, 1, 2, 4 and 6 hours. Samples are quenched with acetonitrile (containing internal standard) and pelleted by centrifugation. The supernatant is transferred to a deep-well plate and prepared for analysis of decline of parent compound by HPLC-MS/MS.
The percentage of remaining test compound is calculated using the peak area ratio (test compound/internal standard) of each incubation time point relative to the time point 0 peak area ratio. The log-transformed data are plotted versus incubation time, and the absolute value of the slope obtained by linear regression analysis is used to estimate in vitro half-life (T1/2).
CL_[sequence]_IN VIVO[mL/min/kg]=(CL_[sequence][μL/min/10^6cells]×hepatocellularity[10^6cells/g liver]×liver factor[g/kg body weight])/1000
Hepatic in vivo blood clearance (CL) is predicted according to the well-stirred liver model considering an average liver blood flow (QH) of 20.7 mL/min/kg:
CL[mL/min/kg]=CL_[sequence]_IN VIVO[mL/min/kg]×hepatic blood flow[mL/min/kg]/(CL_[sequence]_IN VIVO[mL/min/kg]+hepatic blood flow[mL/min/kg])
Results are expressed as percentage of hepatic blood flow:
QH[%]=CL[mL/min/kg]/hepatic blood flow[mL/min/kg])

[2] = Homo sapiens, NCI-H358, NCI-H358 SOS2 KO cells

Chain of SOS1 and KRAS G12D (Q07889 564-1049, stated change not applied): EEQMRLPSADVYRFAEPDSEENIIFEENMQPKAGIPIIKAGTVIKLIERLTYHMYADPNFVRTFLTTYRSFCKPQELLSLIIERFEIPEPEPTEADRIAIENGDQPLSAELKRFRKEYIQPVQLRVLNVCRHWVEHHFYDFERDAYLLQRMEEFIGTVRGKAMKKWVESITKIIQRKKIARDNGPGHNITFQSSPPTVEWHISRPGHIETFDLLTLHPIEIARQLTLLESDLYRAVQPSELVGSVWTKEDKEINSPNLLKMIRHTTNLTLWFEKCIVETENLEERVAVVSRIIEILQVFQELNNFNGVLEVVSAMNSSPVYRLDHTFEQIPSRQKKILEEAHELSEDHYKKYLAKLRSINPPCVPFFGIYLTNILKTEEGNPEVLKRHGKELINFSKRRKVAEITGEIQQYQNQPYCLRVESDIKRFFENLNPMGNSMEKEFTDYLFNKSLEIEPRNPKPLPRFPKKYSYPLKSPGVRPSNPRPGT
Chain of SOS1 and KRAS G12C (Q07889 564-1049, stated change not applied): as above

Structure (SMILES)	IC50 (SOS1 and KRAS G12C) [nM]	IC50 (SOS1 and KRAS G12D) [nM]	IC50 [1, 2] [µM]	IC50 (P450 3A4) [µM]	inhibition at 30 min (CYP3A4) [%]	Hepatic clearance - QH[%] in human hepatocytes (human hepatocytes) [%]	IC50 ([1]; NCI-H358 SOS2 KO cells) [µM]	MBI inhibition % ctrl. [%] with MDZ (CYP3A4) [%]
C[C@@H](NC(=O)c1cc([C@H]2CC[C@H](N3CCC[C@H](O)C3)CC2)c2ncnn2c1)c1cccc(C(F)(F)F)c1F [Example E67]	33	33	0.046	> 50	95	10	–	–
C[C@@H](NC(=O)c1cc(N2CCC(NC3COCC3O)CC2)c2ncnn2c1)c1cccc(C(F)F)c1F (single isomer, unassigned) [Example cis-E16b]	26	19	–	> 50	–	24	0.316	87
C[C@@H](NC(=O)c1cc(N2CCC(N(C)CCO)CC2)c2ncnn2c1)c1cccc(C(F)(F)F)c1F [Example E55]	69	54	0.397	> 50	83	<4	–	–
C[C@@H](NC(=O)c1cc(N2CCC3(CCCCN3)CC2)c2ncnn2c1)c1cccc(C(F)F)c1F [Example E19]	32	27	0.222	> 50	102	19	–	–
C[C@@H](NC(=O)c1cc(C2=CCC(N3CCC[C@H](O)C3)CC2)c2nncn2c1)c1cccc(C(F)F)c1F (stereo partly drawn) [Example E82]	20	15	0.09	> 50	92	5	–	–
C[C@@H](NC(=O)c1cc(N2CCC(N3CCC[C@H](O)C3)CC2)c2ncnn2c1)c1cccc(C(F)F)c1F [Example E18]	49	37	0.054	> 50	99	17	–	–
C[C@@H](NC(=O)c1cc(N2CCC(N3CC[C@@H](O)C3)CC2)c2ncnn2c1)c1cccc(C(F)(F)F)c1F [Example E57]	65	52	0.149	> 50	106	15	–	–
C[C@@H](NC(=O)c1cc(N2CCC3(CCNC3)CC2)c2ncnn2c1)c1cccc(C(F)(F)F)c1F [Example E36]	28	22	0.144	> 50	96	10	–	–
C[C@@H](NC(=O)c1cc(N2CCC(N3CCCC(O)CC3)CC2)c2ncnn2c1)c1cccc(C(F)(F)F)c1F (single isomer, unassigned) [Example E43a]	42	40	–	> 50	91	25	0.046	–
C[C@@H](NC(=O)c1cc(N2CCC(N3CCC4(CC4)C3)CC2)c2ncnn2c1)c1cccc(C(F)F)c1F [Example E8]	70	69	0.188	> 50	97	18	–	–
C[C@@H](NC(=O)c1cc([C@]2(O)CC[C@@H](N3CC[C@H](F)C3)CC2)c2ncnn2c1)c1cccc(C(F)F)c1F [Example E66]	74	79	0.152	> 50	81	32	–	–
C[C@@H](NC(=O)c1cc(N2CCC(N3C[C@@H](O)[C@@H]3C)CC2)c2ncnn2c1)c1cccc(C(F)(F)F)c1F [Example E32]	44	43	0.27	> 50	92	23	–	–
C[C@@H](NC(=O)c1cc([C@H]2CC[C@H](N3C[C@H](F)C[C@@H]3CO)CC2)c2ncnn2c1)c1cccc(C(F)F)c1F [Example E60]	21	20	0.29	> 50	90	26	–	–
C[C@@H](NC(=O)c1cc(N2CCC(N3CCC[C@H](O)C3)CC2)c2ncnn2c1)c1cccc(C(F)(F)F)c1F [Example E44]	63	42	0.058	> 50	95	16	–	–
C[C@@H](NC(=O)c1cc(N2CCC(N3CCCC3)CC2)c2ncnn2c1)c1cccc(C(F)(F)F)c1F [Example E48]	69	60	0.082	> 50	92	27	–	–
C[C@@H](NC(=O)c1cc(N2CCC3(CCCN3)CC2)c2ncnn2c1)c1cccc(C(F)(F)F)c1F [Example E34]	42	34	0.062	> 50	106	10	–	–
Cc1c([C@@H](C)NC(=O)c2cc(N3CCC4(CCCN4C)CC3)c3nnc(C)n3c2)cccc1C(F)(F)F [Example E80]	37	27	0.213	> 50	88	<4	–	–
C[C@@H](NC(=O)c1cc(N2CCC3(CCCN3C)CC2)c2nncn2c1)c1cccc(C(F)(F)F)c1F [Example E77]	27	22	0.202	> 50	88	<4	–	–
C[C@@H](O)CNC1CCN(c2cc(C(=O)N[C@H](C)c3cccc(C(F)(F)F)c3F)cn3ncnc23)CC1 [Example E39]	53	54	0.251	> 50	75	43	–	–
C[C@@H](NC(=O)c1cc([C@H]2CC[C@H](N3CCC(F)C(O)C3)CC2)c2ncnn2c1)c1cccc(C(F)F)c1F (single isomer, unassigned) [trans-E61a]	39	41	–	> 50	93	40	0.391	–
C[C@@H](NC(=O)c1cc(N2CCC(N3CCC[C@H]3CO)CC2)c2ncnn2c1)c1cccc(C(F)(F)F)c1F [Example E31]	33	28	0.153	> 50	91	13	–	–
C[C@@H]1[C@H](O)CN1C1CCN(c2cc(C(=O)N[C@H](C)c3cccc(C(F)(F)F)c3F)cn3ncnc23)CC1 [Example E25]	63	53	0.282	> 50	91	17	–	–
C[C@@H]1C[C@@H](O)CN1[C@H]1CC[C@H](c2cc(C(=O)N[C@H](C)c3cccc(C(F)F)c3F)cn3ncnc23)CC1 [Example E62]	22	15	0.315	> 50	98	9	–	–
C[C@@H](NC(=O)c1cc(N2CCC(N3C[C@H](O)C4(CC4)C3)CC2)c2ncnn2c1)c1cccc(C(F)F)c1F [Example E3]	59	50	0.155	> 50	94	24	–	–
C[C@@H](NC(=O)c1cc(N2CCC3(CCCN3C)CC2)c2ncnn2c1)c1cccc(C(F)F)c1F [Example E20]	44	33	0.146	> 50	94	19	–	–
